Test results taken from the METLIN SMRT retention time set (Domingo-Almenara et al. 2019).

Assay: gradient 5% acetonitrile 3 min, to 50% in 2 min, to 85% in 15 min, held 3 min, 100 µL/min
Conditions: column: Zorbax Extend-C18 2.1 x 50 mm; eluents: water / acetonitrile, 0.1% formic acid
Procedure, shortened: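 Retention times of pure standards were taken from adduct peaks that were selected by computer and manually inspected. Over 3 months, mixtures of ~100 molecules were run by HPLC–quadrupole time-of-flight mass spectrometry in positive and negative ionization mode. The Zorbax Extend-C18 column (2.1 × 50 mm, 1.8 μm) ran at 100 μL/min in water and acetonitrile, each containing 0.1% formic acid, with 40 μL dead volume and 900 μL dwell volume.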

In order of falling RP-LC retention time:
1. COc1cc(Br)ccc1NC(=O)C1CCCN(c2nc3ccccc3nc2OC)C1 (stereo unspecified)  1330 s
2. Clc1cccc(-c2noc(Cc3nc(-c4ccc5c(c4)OCO5)cs3)n2)c1  1250 s
3. CCOc1ccc(CNC(=O)c2cc3c(-c4cccs4)nn(-c4ccccc4)c3n2CC)cc1  1240 s
4. Cc1cccc(S(=O)(=O)N2CCCC2c2nc(-c3cccc(C(F)(F)F)c3)no2)c1 (stereo unspecified)  1200 s
5. C(=C\c1ccc(/C=C/c2ccccc2)nn1)/c1ccccc1  1140 s
6. CCc1ccc(Oc2nccnc2N2CCC(C(=O)NC(C)c3ccccc3)CC2)cc1 (stereo unspecified)  1120 s
7. CCn1ncc(Br)c1C(=O)Nc1ccccc1Cl  1090 s
8. Cc1nn(C(=O)C(C)(C)C)c(C)c1S(=O)(=O)N1CCOCC1  1090 s
9. O=C(Nc1cnc(-c2cccc(Cl)c2)nc1)c1cccs1  1070 s
10. Cc1ccc(NS(=O)(=O)c2cc3n(c2)CCN(C)C3=O)c(F)c1  1070 s
11. O=C1C2N=NN(Cc3nc(-c4ccccc4Br)no3)C2C(=O)N1c1ccc2c(c1)CCC2 (stereo unspecified)  1060 s
12. Cc1cccc2c(=O)n(C3CCN(S(=O)(=O)c4ccc(Cl)cc4)CC3)cnc12  1030 s
13. Cc1nn(-c2ccc(-c3ccccc3)nn2)c(C)c1S(=O)(=O)N1CCCC1  996 s
14. Fc1ccccc1-c1nn2c(CSc3ccccc3)nnc2s1  981 s
15. CC(C)Oc1ccc(-c2noc(Cn3ccn(-c4ccc(Cl)cc4)c(=O)c3=O)n2)cc1  973 s
16. CC1CCN(S(=O)(=O)c2ccc3nc(N4CCN(c5ccccc5)CC4)ccc3c2)CC1  962 s
17. CC(NC(=O)Nc1ccccc1C(F)(F)F)C(=O)N1CCc2ccccc21 (stereo unspecified)  907 s
18. CC(C)NC(=O)N1CCCC(c2cccc(C(=O)NC(C)c3ccc(F)cc3)c2)C1 (stereo unspecified)  907 s
19. CCn1nc(C)n2cc(S(=O)(=O)NCc3ccc(Cl)cc3)cc2c1=O  904 s
20. O=C(O)C1CCN(c2nc3ccc(-c4ccc(F)cc4)nc3s2)CC1  902 s
21. CCCn1nc2ccc(S(=O)(=O)N3CCC(C)CC3)cn2c1=O  893 s
22. Cc1ccc(C(=O)Nc2ccc(N3CCN(C4CCCC4)C3=O)nc2)cc1  888 s
23. Cc1cccc(S(=O)(=O)NC2CCN(c3ccccc3)C2=O)c1 (stereo unspecified)  875 s
24. O=C(Cn1cnc2nc3c(cc2c1=O)CCCC3)NCCCN1CCc2ccccc2C1  864 s
25. Cc1ccc(Cn2c(C(=O)NCc3ccccc3)cc3sccc32)cc1  864 s
26. O=C(NC1CCCCC1)C1CCCN(C(=O)c2cccc(Cl)c2)C1 (stereo unspecified)  864 s
27. Cc1cccc(N2CCN(C(=O)CN3CCN(Cc4ccccc4)C3=O)CC2)c1  853 s
28. COc1ccc(CNS(=O)(=O)c2cc(-c3cc(C(F)(F)F)on3)sc2C)cc1  848 s
29. COc1ccc(C(=O)NCc2ccccc2OC(F)(F)F)nn1  840 s
30. O=C(NC(c1ccccc1)c1nnc(N2CCCCC2)o1)C1CCCC1 (stereo unspecified)  836 s
31. Cc1nc(-c2noc(-c3ccncc3)n2)cn1CC(=O)Nc1ccc(F)cc1  833 s
32. CCSc1nnc(NC(=O)CSc2nc3ccccc3o2)s1  832 s
33. Cc1cc(C)n2c(Nc3ccc(C(C)C)cc3)c(-c3ccccc3)nc2n1  828 s
34. Cc1ccc(-c2noc(-c3cccnc3N3CCN(Cc4ccccc4)CC3)n2)cc1  823 s
35. COC(=O)C1=C(N)OC2=C(C(=O)CC(C)(C)C2)C1c1cccs1 (stereo unspecified)  821 s
36. Cc1ccccc1CCNC(=O)c1cc2n(n1)CC(C)(C(=O)NCc1ccc(F)cc1)N(C)C2=O (stereo unspecified)  821 s
37. O=C1CCCN1Cc1noc(-c2cccc(Cl)c2)n1  814 s
38. O=C(c1ccc(F)cc1)N1CCC(CCNS(=O)(=O)c2ccc(F)cc2F)CC1  809 s
39. CCOC(=O)c1c(C)[nH]c(C(=O)N2CCCC(C(=O)NCc3cccc(F)c3)C2)c1C (stereo unspecified)  808 s
40. CCCn1cc(CCNC(=O)Nc2cc(C)ccc2C)c2cccnc21  808 s
41. CCSc1nnc(NC(=O)CSc2nnc(COc3ccccc3)o2)s1  806 s
42. CCCNC(=O)c1sc(Nc2ccc(Br)cn2)nc1C  802 s
43. Cc1ccc(CNC(=O)N2CCC3(C2)C(=O)N(C)c2ccccc23)cc1 (stereo unspecified)  797 s
44. CN(C)C(=O)Cc1ccc(NC(=O)Cc2ccc(-c3ccccc3)cc2)cc1  795 s
45. Cc1ccc(CNC(=O)C2CCCN(c3ncnc4c3nc3n4CCCCC3)C2)cc1 (stereo unspecified)  793 s
46. CCCN1C(=O)C2(c3ccccc31)c1[nH]c3ccccc3c1CCN2C(=O)NCC (stereo unspecified)  793 s
47. O=C(Cc1ccc(F)cc1)NC1CCN(c2cc(-c3ccc(Cl)cc3)[nH]n2)C1 (stereo unspecified)  789 s
48. CCS(=O)(=O)N1CC(=O)N(c2cccc(F)c2)C(C)(C(=O)NCc2ccccc2)C1 (stereo unspecified)  779 s
49. CCCCNC(=O)c1ccc2c(c1)CCCN2S(C)(=O)=O  774 s
50. Cc1cccc(Cn2c(=O)n(CCNC(=O)C(C)C)c3ncccc32)c1  769 s
51. Cc1ccc(CNC(=O)C2(C)Cn3nc(C(=O)NCc4ccccc4)cc3C(=O)N2C)cc1 (stereo unspecified)  766 s
52. CCOC(=O)Cn1c(C2CC(=O)N(Cc3ccc(F)cc3)C2)nc2ccccc21 (stereo unspecified)  764 s
53. COc1cccc2sc(N(C)CC(=O)N3CCn4c3nc3ccccc34)nc12  758 s
54. CCc1cccc(NC(=O)Cn2c(=O)nc(N3CCCCC3)c3ccccc32)c1  754 s
55. COc1cccc(-n2nnc(C(=O)O)c2C(F)(F)F)c1  752 s
56. CCC(=O)N1CCc2sc(C(=O)NCc3ccc(F)cc3)cc2C1  750 s
57. CN(CC1(C)CCOCC1)C(=O)NC1CCCCC1  749 s
58. CN(C1CCc2nn(CC3CC3)c(=O)n2CC1)S(=O)(=O)c1ccc(C#N)cc1 (stereo unspecified)  743 s
59. CNC(=O)c1sc2nc(-c3ccc(F)cc3)c(NCCOC)n2c1C  741 s
60. CNC(=O)c1noc([C@@H]2CC(F)(F)CN2CC2CC2)n1  724 s
61. CCOc1ccc(C(=O)Nc2cc(-c3cn4cccnc4n3)ccc2OC)cc1  723 s
62. CCn1ccc2sc(C)c(C(=O)NCc3ccco3)c2c1=O  723 s
63. O=C(NCCn1nnc2cc(C(=O)N3CCCC3)ccc21)Nc1cccc(Br)c1  722 s
64. COc1ccc(NC(=O)C2CCc3nc(N4CCCC4)ncc3C2)cc1OC (stereo unspecified)  719 s
65. O=C(c1ccc2[nH]ccc2c1)N1CCN(c2cc(-c3cccs3)[nH]n2)CC1  708 s
66. COc1ccc(NS(=O)(=O)c2cc(-c3[nH]ncc3C(=O)N3CCCC3)oc2C)cc1F  701 s
67. O=C(NC1CC1)[C@@H]1C[C@H](Oc2ccccc2)CN1C(=O)c1cccs1  699 s
68. Fc1ccc(N2CCN(Cc3nnc(-c4ccccc4)o3)CC2)cc1  691 s
69. CCOC(=O)c1[nH]c(C)c(CCC(=O)N2CCC(C(=O)N3CCCC3)CC2)c1C  687 s
70. CCOc1ccccc1C(=O)NC1CCN(c2cc(-c3ccccc3)[nH]n2)C1 (stereo unspecified)  684 s
71. CCN1CCN(S(=O)(=O)c2cccc(-c3nnc(-c4ccc(C)cc4)o3)c2)CC1  682 s
72. COC(=O)c1ccc(NCc2cc(O)ccc2O)cc1  680 s
73. CC1CCCCN1CCCNC(=O)Cn1ccc2cc(S(=O)(=O)N3CCCCC3)ccc21 (stereo unspecified)  670 s
74. COCC(=O)N1CCCn2cc(-c3ccccc3F)nc21  668 s
75. CCc1ccc(S(=O)(=O)Nc2cccc(-c3cn4c(C)cccc4n3)c2)cc1  667 s
76. COc1ccc(CC(=O)N2CCC(c3cc(N)on3)CC2)cc1  662 s
77. COc1cccc(CNC(=O)Nc2c(-c3ccc(C)cc3)nc3ccccn23)c1  658 s
78. O=C(c1ccc(Br)cc1)N1CCN(c2nnc3ccccn23)CC1  653 s
79. CCCn1c(CCNC(=O)c2ccc(F)cc2)nc2cccnc21  651 s
80. Cn1nc(C(=O)N2CCCC(C(=O)NC3CC3)C2)c2c1CCN(C(=O)c1cccc(F)c1)C2 (stereo unspecified)  646 s
81. O=C(Cc1ccsc1)Nc1ccc(N2CCN(Cc3ccccc3)C2=O)nc1  643 s
82. CCCc1cc(N2CCN(C(=O)c3ccc(C)s3)CC2)nc2nnc(C)n12  643 s
83. CCN1C(=O)c2cccnc2Sc2cc(CNC(=O)c3ccncc3)ccc21  623 s
84. CC(C)CNC(=O)N1CCCC(c2nn[nH]n2)C1 (stereo unspecified)  617 s
85. COc1ccc(CC(=O)Nc2ccc(Nc3cc(OC)nc(C)n3)cc2)cc1  617 s
86. Cc1ccc(S(=O)(=O)N(CCN2CCCCC2C)CC(=O)N2CCNCC2)c(C)c1 (stereo unspecified)  588 s
87. CCN1CCN(Cc2nc3cc(NC(=O)c4cccs4)ccc3n2C(C)C)CC1  586 s
88. O=C(NCc1ccc(N2CCOCC2)nc1)c1ccccc1Br  581 s
89. Cc1cc(N2CCN(C)CC2)nc(N2CCN(S(=O)(=O)c3ccc(Br)cc3)CC2)n1  580 s
90. O=C(NCC1CCS(=O)(=O)C1)c1cccnc1 (stereo unspecified)  565 s
91. Cc1nnc(C2CC3(CCN(CCO)CC3)CN2Cc2ccccc2)o1 (stereo unspecified)  565 s
